The test system of test [1] is Hordeum vulgare. As to the kind of experiment: Induction of resistance to Blumeria graminis f. sp. hordei isolate W14 infection in Hordeum vulgare cv. Edamai 9 (barley) assessed as downregulation of Bsi1 protein gene using HD04G07u_s_at as probe at 10 mg/l after 8 hr by microarray analysis relative to untreated control. It is filed as functional.
Test [2] has as its system Hordeum vulgare. As to the kind of experiment: Induction of resistance to Blumeria graminis f. sp. hordei isolate W14 infection in Hordeum vulgare cv. Edamai 9 (barley) assessed as upregulation of stress-induced gene using Contig3427_at as probe at 10 mg/l after 8 hr by microarray analysis relative to untreated control. Format: functional.
Test [3] has as its system Hordeum vulgare. As to the kind of experiment: Induction of resistance to Blumeria graminis f. sp. hordei isolate W14 infection in Hordeum vulgare cv. Edamai 9 (barley) assessed as upregulation of Xyloglucan endotransglycosylase-like protein gene using Contig2669_at as probe at 10 mg/l after 8 hr by microarray analysis relative to untreated control. It is filed as functional.

Test [4] concerns Hordeum vulgare. As to the kind of experiment: Induction of resistance to Blumeria graminis f. sp. hordei isolate W14 infection in Hordeum vulgare cv. Edamai 9 (barley) assessed as downregulation of Peroxidase gene using HVSMEm0005P05r2_at as probe at 10 mg/l after 8 hr by microarray analysis relative to untreated control. It is filed as functional.
For test [5], the system named is Blumeria hordei. As to the kind of experiment: Antifungal activity against Blumeria graminis f. sp. hordei isolate W14 assessed as conidial germination at 10 mg/l after 48 hr (reference value: 47.3%). Format: functional.
Test [6] has as its system Hordeum vulgare. As to the kind of experiment: Induction of resistance to Blumeria graminis f. sp. hordei isolate W14 infection in Hordeum vulgare cv. Edamai 9 (barley) assessed as upregulation of leaf-specific thionin gene using Contig1570_s_at as probe at 10 mg/l after 8 hr by microarray analysis relative to untreated control. It is filed as functional.
The subject of test [7] is Hordeum vulgare. As to the kind of experiment: Induction of resistance to Blumeria graminis f. sp. hordei isolate W14 infection in Hordeum vulgare cv. Edamai 9 (barley) assessed as downregulation of Pathogenesis-related protein gene using Contig4054_s_at as probe at 10 mg/l after 8 hr by microarray analysis relative to untreated control. Format: functional.
For test [8], the system named is Blumeria hordei. As to the kind of experiment: Antifungal activity against Blumeria graminis f. sp. hordei isolate W14 infected barley cv. Edamai 9 assessed as conidial germination at 10 mg/l after 15 days (reference value: 92.4%). Format: functional.
In test [9] the test system is Hordeum vulgare. As to the kind of experiment: Induction of resistance to Blumeria graminis f. sp. hordei isolate W14 infection in Hordeum vulgare cv. Edamai 9 (barley) assessed as upregulation of leaf-specific thionin gene using Contig1570_s_at as probe at 10 mg/l after 8 hr by qRT-PCR analysis relative to untreated control. It is filed as functional.
The subject of test [10] is Hordeum vulgare. As to the kind of experiment: Induction of resistance to Blumeria graminis f. sp. hordei isolate W14 infection in Hordeum vulgare cv. Edamai 9 (barley) assessed as downregulation of Pathogenesis-related protein 4 gene using Contig2550_x_at as probe at 10 mg/l after 8 hr by microarray analysis relative to untreated control. It is filed as functional.
Test [11] concerns Hordeum vulgare. As to the kind of experiment: Induction of localised resistance to Blumeria graminis f. sp. hordei isolate W14 infection in Hordeum vulgare cv. Edamai 9 (barley) assessed as decrease in colonies on leaf at 10 mg/l up to 216 hr relative to untreated-control. Format: functional, organism-based.
In test [12] the test system is Hordeum vulgare. As to the kind of experiment: Induction of resistance to Blumeria graminis f. sp. hordei isolate W14 infection in Hordeum vulgare cv. Edamai 9 (barley) assessed as upregulation of Phytoene synthase E1 gene using Contig13305_at as probe at 10 mg/l after 8 hr by microarray analysis relative to untreated control. Format: functional.
For test [13], the system named is Hordeum vulgare. As to the kind of experiment: Induction of resistance to Blumeria graminis f. sp. hordei isolate W14 infection in Hordeum vulgare cv. Edamai 9 (barley) assessed as upregulation of leaf-specific thionin gene using Contig1567_x_at as probe at 10 mg/l after 8 hr by qRT-PCR analysis relative to untreated control. Format: functional.
The test system of test [14] is Hordeum vulgare. As to the kind of experiment: Induction of resistance to Blumeria graminis f. sp. hordei isolate W14 infection in Hordeum vulgare cv. Edamai 9 (barley) assessed as upregulation of leaf-specific thionin gene using Contig1576_at as probe at 10 mg/l after 8 hr by microarray analysis relative to untreated control. Format: functional.
The test system of test [15] is Hordeum vulgare. As to the kind of experiment: Induction of resistance to Blumeria graminis f. sp. hordei isolate W14 infection in Hordeum vulgare cv. Edamai 9 (barley) assessed as downregulation of Oxalate oxidase gene using Contig3017_at as probe at 10 mg/l after 8 hr by microarray analysis relative to untreated control. It is filed as functional.
Test [16] has as its system Hordeum vulgare. As to the kind of experiment: Induction of resistance to Blumeria graminis f. sp. hordei isolate W14 infection in Hordeum vulgare cv. Edamai 9 (barley) assessed as upregulation of leaf-specific thionin gene using Contig1582_x_at as probe at 10 mg/l after 8 hr by microarray analysis relative to untreated control. It is filed as functional.
Test [17] concerns Hordeum vulgare. As to the kind of experiment: Induction of resistance to Blumeria graminis f. sp. hordei isolate W14 infection in Hordeum vulgare cv. Edamai 9 (barley) assessed as upregulation of leaf-specific thionin gene using Contig1580_x_at as probe at 10 mg/l after 8 hr by microarray analysis relative to untreated control. Format: functional.
Test [18] has as its system Blumeria hordei. As to the kind of experiment: Antifungal activity against Blumeria graminis f. sp. hordei isolate W14 infected barley cv. Edamai 9 assessed as disease index at 10 mg/l after 15 days (reference value: 76.5%). Format: functional.
Test [19] has as its system Hordeum vulgare. As to the kind of experiment: Induction of resistance to Blumeria graminis f. sp. hordei isolate W14 infection in Hordeum vulgare cv. Edamai 9 (barley) assessed as upregulation of leaf-specific thionin gene using Contig1567_x_at as probe at 10 mg/l after 8 hr by microarray analysis relative to untreated control. Format: functional.
The subject of test [20] is Hordeum vulgare. As to the kind of experiment: Induction of systemic resistance to Blumeria graminis f. sp. hordei isolate W14 infection in Hordeum vulgare cv. Edamai 9 (barley) assessed as decrease in colonies on leaf at 10 mg/l up to 216 hr relative to untreated-control. Format: functional, organism-based.
In test [21] the test system is Hordeum vulgare. As to the kind of experiment: Induction of resistance to Blumeria graminis f. sp. hordei isolate W14 infection in Hordeum vulgare cv. Edamai 9 (barley) assessed as upregulation of stress-induced gene using Contig3426_at as probe at 10 mg/l after 8 hr by microarray analysis relative to untreated control. It is filed as functional.

Activity calls are given as the source filed them. No cut-off for these calls is given here.

Consider `COc1cc(O)c2c(c1)C(=O)c1cc(C)cc(O)c1C2=O` [PHYSCION], for which the “fold change (FC)” value in test [1] is -2.77; in test [2], 2.41; in test [3], 2.44; in [4] it was -2.96; in test [6], 4.3; in test [7], -2.94. For the same compound, the “fold change (FC)” value is reported as 5.61 in test [9]; -2.34 in [10]; 2.09 in test [12]; 4.77 in test [13]; 9.34 in test [14]; -2.87 in [15]. Further, the “fold change (FC)” value stood at 4.26 in test [16], 4.74 in test [17], 19.91 in [19] and 3.04 in [21]. Further, the Activity in [5] is reported as 56.6%; in test [8], 4.5%. For the same compound, the outcome in [11] was Active. Also, in test [18], the PDI is on record as 4.4%. Besides, the outcome in [20] was inactive.

These data come from ChEMBL document CHEMBL3044754, “Physcion, a natural anthraquinone derivative, enhances the gene expression of leaf-specific thionin of barley against Blumeria graminis” (2010).
